According to patent EP0771801B1, “Chromane derivatives” (AMERICAN HOME PRODUCTS CORPORATION, priority 1995, dated 1997):
Read-outs that look alike come from different tables or passages of the source.

Key:
dopamine autoreceptor = target: T1, dopamine autoreceptor (Rattus norvegicus, UniProt P61169); assay: Affinity for the dopamine autoreceptor: [3H]-quinpirole binding in homogenized rat striatal brain tissue; conditions: for IC50: [3H]-quinpirole, rat striatal brain tissue, read-out: IC50 (nM) D2 Quin.; for Ratio antagonist: ratio of D2 Spiper IC50 to D2 Quin. IC50 (LowAg/HighAg, predicts intrinsic activity)
T1 construct: from tissue; host or cells: rat striatal brain tissue homogenate
Protocol: Affinity for the dopamine autoreceptor was established by a modification of the standard experimental test procedure of Seemen and Schaus, European Journal of Pharmacology 203: 105-109, 1991, wherein homogenized rat striatal brain tissue is incubated with [^3H]-quinpirole (Quin.) at various concentrations of test compound, filtered, washed and counted in a Betaplate scintillation counter.

α1 = α1 binding (method not described)
5-HT1a = target: T2, 5-HT1a (Homo sapiens, UniProt P08908); assay: 5-HT1a binding (method not described)
T2 sequence (P08908 1-422): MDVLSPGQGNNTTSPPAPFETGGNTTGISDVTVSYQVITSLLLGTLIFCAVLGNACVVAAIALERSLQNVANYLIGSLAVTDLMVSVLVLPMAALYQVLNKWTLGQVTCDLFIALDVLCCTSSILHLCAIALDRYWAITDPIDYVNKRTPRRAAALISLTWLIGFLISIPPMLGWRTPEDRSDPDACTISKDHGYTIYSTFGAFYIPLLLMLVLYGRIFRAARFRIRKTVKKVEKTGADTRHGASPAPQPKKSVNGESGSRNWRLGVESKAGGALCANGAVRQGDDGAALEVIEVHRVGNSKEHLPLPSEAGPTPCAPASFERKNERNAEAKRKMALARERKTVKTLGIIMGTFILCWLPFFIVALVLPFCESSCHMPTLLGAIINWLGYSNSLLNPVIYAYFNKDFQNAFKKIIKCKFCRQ

T1 sequence (P61169 whole entry): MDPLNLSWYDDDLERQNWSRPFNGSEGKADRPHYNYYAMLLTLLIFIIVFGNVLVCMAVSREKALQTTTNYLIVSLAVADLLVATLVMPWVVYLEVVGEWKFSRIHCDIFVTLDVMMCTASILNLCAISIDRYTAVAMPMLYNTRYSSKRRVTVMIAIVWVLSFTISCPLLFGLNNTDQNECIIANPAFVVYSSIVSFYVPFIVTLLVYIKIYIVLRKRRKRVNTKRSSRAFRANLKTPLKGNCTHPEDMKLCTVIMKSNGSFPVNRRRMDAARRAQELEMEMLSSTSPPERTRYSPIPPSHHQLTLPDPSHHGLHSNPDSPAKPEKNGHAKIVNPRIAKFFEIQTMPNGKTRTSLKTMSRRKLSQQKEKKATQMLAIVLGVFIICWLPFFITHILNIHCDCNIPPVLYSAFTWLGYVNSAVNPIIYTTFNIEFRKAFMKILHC

SMILES | IC50 (dopamine autoreceptor) [nM] | Ratio antagonist (dopamine autoreceptor) | IC50 (α1) [nM] | IC50 (5-HT1a; read-out: IC50 (nM) 5-HT1a.) [nM] | IC50 (5-HT1a; IC50 (nM) 5-HT1a.) [nM]
O=C1Cc2c(ccc3c2OC(CNCc2ccccc2)CC3)N1 (single isomer, unassigned; (+)) [Example 2a, (+)-2-(benzylamino-methyl)-3,4,7,9-tetrhydro-2H-pyrano[2,3-e]indol-8-one] | 16.4 | 45 | 519 | 330 | –
O=C1Cc2c(ccc3c2OC(CNCc2ccc(F)cc2)CC3)N1 (centres unmarked) [Example 1b, 2-(4-Fluoro-benzylamino-methyl)-3,4,7,9-tetrahydro-2H-pyrano[2,3-e]indol-8-one] | 0.83 | 375 | 352 | 16 | –
COc1ccc(CNCC2CCc3ccc4c(c3O2)CC(=O)N4)cc1 (centres unmarked) [Example 1c, 2-(4-Methoxy-benzylamino-methyl)-3,4,7,9-tetrahydro-2H-pyrano[2,3-e]indol-8-one] | 0.96 | 307 | 258 | 38 | –
O=C1Cc2c(ccc3c2OC(CNCc2ccccc2)CC3)N1 (single isomer, unassigned; (-)) [Example 2b, (-)-2-(benzylamino-methyl)-3,4,7,9-tetrhydro-2H-pyrano[2,3-e]indol-8-one] | 0.27 | 265 | 330 | 17.1 | –
Cc1ccc(CNCC2CCc3ccc4c(c3O2)CC(=O)N4)c(C)c1 (centres unmarked) [Example 1f, 2-(2,4-Dimethyl-benzylamino-methyl)-3,4,7,9-tetrahydo-2H-pyrano[2,3-e]indol-8-one] | 2.62 | 150 | 81 | – | 15
O=C1Cc2c(ccc3c2OC(CNCc2ccc(Cl)cc2)CC3)N1 (centres unmarked) [Example 1e, 2-(4-Chloro-benzylamino-methyl)-3,4,7,9-tetrahydro-2H-pyrano[2,3-e]indol-8-one] | 0.64 | 233 | 184 | 7.53 | –
Cc1ccc(CNCC2CCc3ccc4c(c3O2)CC(=O)N4)cc1 (centres unmarked) [Example 1d, 2-(4-Methyl-benzylamino-methyl)-3,4,7,9-tetrahydro-2H-pyrano[2,3-e]indol-8-one] | 0.45 | 229 | 194 | 10 | –
O=C1Cc2c(ccc3c2OC(CNCc2ccccc2)CC3)N1 (centres unmarked) [Example 1a, 2-(Benzylamino-methyl)-3,4,7,9-tetrahydro-2H-pyrano-[2,3-e]indol-8-one] | 0.73 | 194 | 244 | 34 | –
